From patent publication US12552800B2, “Compounds for diagnosis” (AC IMMUNE SA, priority 2020, dated 2026)
“Also recorded” adds a separate entry of the source. Like-named read-outs stand apart in the source and are kept apart here.

Columns and labels:
[1] = molecular target: T1, pathological a-synuclein aggregates (Homo sapiens, UniProt P37840); assay: Autoradiography of Example-1 [^3H-1] in brain sections from PD, PDD and NDC donors; format: binding; design: Frozen human brain sections from one familial PD case; from tissue; host or cells: frozen human brain sections: familial PD (SNCA G51D), PDD or idiopathic PD, MSA, NDC controls; details: PDD brain tissue, autoradiography
Experimental: (§1) Frozen human brain sections from one familial PD case (a-synuclein [SNCA] gene G51 D missense mutation), labelled as SNCA (G51 D), one PDD case and two non-demented control (NDC) cases were first briefly fixed for 15 minutes at 4° C. with 4% paraformaldehyde (Sigma, 252549) and washed three times for five minutes with PBS (Dulbecco's phosphate buffered saline, Sigma) at RT. All slides were then equilibrated for 20 minutes in 50 mM Tris-HCl pH 7.4 buffer prior to use in the experiment. Each brain section was incubated with a fixed concentration (10 nM) of tritiated example compound 1 (Example-1 [^3H-1]) or a reference a-syn ligand ([3H]-a-syn-Ref), or increasing concentrations of Example-1 [^3H-1] in the range of 1.25 nM to 80 nM of tritiated compound in Tris-HCl buffer for two hours at RT (Total binding, ‘−’). To determine non-specific (NS) binding Example-1 [^3H-1] or [3H]-a-syn-Ref was mixed with 1 μM of non-radiolabelled compound (Example 1 or a-syn-Ref respectively, self-block, ‘+’). The slides were washed and placed under Phosphor imaging screens (GE healthcare, BAS-IP TR 2025) in imaging cassettes. Imaging screens were scanned using a laser imaging system (Typhoon, FLA 7000) and resulting images were analyzed using the ImageJ software package.

[2] = molecular target: T2, TAR DNA-binding protein 43 (TDP-43) aggregates (Homo sapiens, UniProt Q13148); assay: Micro-autoradiography of Example-1 [^3H-1] on FTLD-TDP type C tissue; details: FTLD-TDP Type C brain tissue
T2 construct: present in Frontotemporal Lobar Degeneration TDP (FTLD-TDP) Type C brain tissue; from tissue; host or cells: FTLD-TDP type C brain tissue sections
Experimental: (§2) The protocol was adapted from Marquie et al., 2015. Sections were incubated with tritiated example compound 1 (Example-1 [3H-1]) or a reference Tau ligand ([3H]-Tau-Ref at 60 nM for one hour at room temperature (RT). Sections were then washed as follows: One time in ice-cold 50 mM Tris-HCl pH 7.4 buffer for one minute, two times in 70% ice-cold ethanol for one minute, one time in ice-cold 50 mM Tris-HCl pH 7.4 buffer for one minute and finally rinsed briefly in ice-cold distilled water. Sections were subsequently dried and then exposed to Ilford Nuclear Emulsion Type K5 (Agar Scientific, AGP9281) in a light-proof slide storage box. After five days, the sections were developed by immersing them successively in the following solutions: 1.) Ilford Phenisol Developer (1:5 dilution in H2O, Agar Scientific, AGP9106), 2.) Ilfostop solution (1:20 dilution in H2O, Agar Scientific, AGP9104), 3.) Ilford Hypam Fixer (1:5 dilution in H2O, Agar Scientific, AGP9183) and finally rinsed with H2O. […]

[3] = molecular target: T1, pathological a-synuclein aggregates; assay: Autoradiography of Example-1 [^3H-1] in brain sections from PD, PDD and NDC donors; format: binding
Experimental: as §1

[4] = molecular target: T3, pathological a-synuclein aggregates (Homo sapiens, UniProt P37840, G51D); assay: as above; format: binding; details: Genetic PD (SNCA (G51D)) brain tissue, autoradiography
T3 construct: Frozen human brain sections from one familial PD case; from tissue; host or cells: frozen human brain sections: familial PD (SNCA G51D), PDD or idiopathic PD, MSA, NDC controls
Experimental: as §1

Tau aggregates [5] = assay: Micro-autoradiography of Example-1 [^3H-1] on AD tissue; format: binding, human; details: AD brain tissue, compared to [3H]-Tau-Ref
Experimental: as §2

a-syn pathology = molecular target: T4, a-syn pathology (Homo sapiens, UniProt P37840); assay: Autoradiography of Example-1 [^3H-1] in brain sections from PD, PDD, MSA, LBV and NDC donors; format: binding; details: 10 nM
T4 construct: performed on frozen human brain sections from different a-synucleinopathy cases; from tissue; host or cells: frozen human brain sections (PD, PDD, MSA, DLB, LBV; NDC as controls)
Experimental: (§3) Frozen human brain sections from one PD case, two PDD cases, two MSA cases, one LBV case and three non-demented control (NDC) cases were first briefly fixed for 15 minutes at 4° C. with 4% paraformaldehyde (Sigma, 252549) and washed three times for five minutes with PBS (Dulbecco's phosphate buffered saline, Sigma) at RT. All slides were then equilibrated for 20 minutes in 50 mM Tris-HCl pH 7.4 buffer prior to use in the experiment. Each brain section was incubated with a fixed concentration (10 nM) of tritiated example compound 1 (Example-1 [^3H-1]) in Tris-HCl buffer for two hours at RT (Total binding, ‘Total’). […] The slides were washed and then exposed and scanned in a real-time autoradiography system (BeaQuant instrument, ai4R).

[6] = molecular target: T5, PD brain-derived a-syn aggregates (Homo sapiens, UniProt P37840); assay: Saturation binding of Example-1 [^3H-1] by micro-radiobinding; details: head-to-head with [3H]-a-syn-Ref
T5 construct: from tissue; host or cells: human PD donor brain, sarkosyl-insoluble 100,000 x g pellet
Experimental: PD brain-derived a-syn aggregates were spotted onto microarray slides. The slides were incubated with Example-1 [^3H-1] or [3H]-a-syn-Ref at increasing concentrations in the range of 300 pM to 150 nM. After incubation, slides were washed and exposed to a phosphor storage screen (GE healthcare, BAS-IP TR 2025). Following exposure, phosphor storage screens were scanned with a laser imaging system (Typhoon FLA 7000) to readout the signal from the radiobinding experiments described above. Quantification of the signal was performed using the ImageJ software package.

[7] = molecular target: T6, a-syn aggregates (Lewy bodies and Lewy neurites) (Homo sapiens, UniProt P37840); assay: High resolution micro-autoradiography of Example-1 [^3H-1] in a-synucleinopathy tissues; format: binding; details: 60 nM; PD, PDD, MSA, DLB, LBV tissue
T6 construct: performed on frozen human brain sections from different a-synucleinopathy cases; from tissue; host or cells: frozen human brain sections (PD, PDD, MSA, DLB, LBV; NDC as controls)
Experimental: (§4) The protocol was adapted from Marquie et al., 2015. Sections were incubated with tritiated example compound 1 (Example-1 [3H-1]) or a reference Tau ligand ([3H]-Tau-Ref at 60 nM for one hour at room temperature (RT). Sections were then washed as follows: One time in ice-cold 50 mM Tris-HCl pH 7.4 buffer for one minute, two times in 70% ice-cold ethanol for one minute, one time in ice-cold 50 mM Tris-HCl pH 7.4 buffer for one minute and finally rinsed briefly in ice-cold distilled water. Sections were subsequently dried and then exposed to Ilford Nuclear Emulsion Type K5 (Agar Scientific, AGP9281) in a light-proof slide storage box. After five days, the sections were developed by immersing them successively in the following solutions: 1.) Ilford Phenisol Developer (1:5 dilution in H2O, Agar Scientific, AGP9106), 2.) Ilfostop solution (1:20 dilution in H2O, Agar Scientific, AGP9104), 3.) Ilford Hypam Fixer (1:5 dilution in H2O, Agar Scientific, AGP9183) and finally rinsed with H2O.
(§5) When indicated, immunostaining was also performed on the same section. For image acquisition, sections were mounted using ProLong Gold Antifade reagent (Invitrogen P36930) and imaged on a Panoramic150 Slide Scanner (3DHistech) with a 20× objective capturing separately brightfield and fluorescent images. […]

Tau aggregates [8] = assay: Micro-autoradiography of Example-4 [^3H-4] on AD tissue; format: binding, human; details: AD brain tissue, compared to [^3H]-Tau-Ref
Experimental: as §4, with “4 (Example-4 [^3H-4])” for “1 (Example-1 [3H-1])”, “([^3H]-Tau-Ref” for “([3H]-Tau-Ref”, “20” for “60”, “RT.” for “room temperature (RT).”

pathological a-synuclein = assay: Autoradiography of Example-4 [^3H-4] in brain sections from PD, MSA and NDC donors; format: binding, human; details: 10 nM
Experimental: as §3, with “one familial PD case (a-synuclein [SNCA] gene G51 D missense mutation), labelled as SNCA, one idiopathic” for “one”, “case, one” for “case, two PDD cases, two”, “MSA” for “MSA cases, one LBV”, “and two” for “and three”, “compound 4 (Example-4 [^3H-4])” for “compound 1 (Example-1 [^3H-1])”

[9] = molecular target: T6, a-syn aggregates (Lewy bodies and Lewy neurites); assay: High resolution micro-autoradiography of Example-4 [^3H-4] on PD tissue; format: binding; details: 20 nM
Experimental: as §4, with “4 (Example-4 [^3H-4])” for “1 (Example-1 [3H-1])”, “([^3H]-Tau-Ref” for “([3H]-Tau-Ref”, “20” for “60”, “RT.” for “room temperature (RT).”
as §5

[10] = molecular target: T5, PD brain-derived a-syn aggregates; assay: Saturation binding of Example-4 [^3H-4] by micro-radiobinding; details: PD homogenates
Experimental: PD brain-derived a-syn aggregates were spotted onto microarray slides. The slides were incubated with Example-4 [^3H-4] at increasing concentrations in the range of 1.56 nM to 80 nM. After incubation, slides were scanned by a real-time autoradiography system (BeaQuant instrument, ai4R). Quantification of the signal was performed by using the Beamage image analysis software (ai4R).

T2 sequence (Q13148 whole entry): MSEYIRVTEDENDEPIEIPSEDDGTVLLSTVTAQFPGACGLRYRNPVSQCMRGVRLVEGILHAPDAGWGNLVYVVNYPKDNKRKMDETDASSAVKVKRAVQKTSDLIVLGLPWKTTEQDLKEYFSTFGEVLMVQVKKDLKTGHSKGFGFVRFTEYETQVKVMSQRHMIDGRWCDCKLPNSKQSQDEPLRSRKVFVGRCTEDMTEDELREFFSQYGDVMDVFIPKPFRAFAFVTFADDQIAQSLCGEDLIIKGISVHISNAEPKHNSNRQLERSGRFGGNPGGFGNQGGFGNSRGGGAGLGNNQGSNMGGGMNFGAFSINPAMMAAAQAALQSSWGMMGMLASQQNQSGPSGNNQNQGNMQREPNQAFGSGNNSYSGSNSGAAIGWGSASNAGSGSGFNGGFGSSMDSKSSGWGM

Structure (SMILES)	B max [1]	Kd [1]	binding to TDP-43 aggregates [2]	Kd ([3]; PDD and genetic PD tissue, range of both, read-out: dissociation constant (Kd))	binding in non-diseased tissue (NDC) ([3]; autoradiography, 10 nM)	specific binding in a-synucleinopathy brain sections ([3]; autoradiography, PDD and PD tissue, compared to [3H]-a-syn-Ref at 10 nM)	B max [4]	Kd [4]	target engagement on Tau aggregates (Tau aggregates [5])	autoradiographic signal in non-demented control cases (a-syn pathology)	target engagement in a-synucleinopathy tissues (a-syn pathology; MSA, LBV, PDD cases)	binding site occupancy [6]	target engagement on Lewy bodies and Lewy neurites (silver grains) [7]	target engagement on Tau aggregates (Tau aggregates [8])	target engagement on Tau aggregates (Tau aggregates [8]; listed as Example-4 [^3H-1])	signal in non-diseased control cases (pathological a-synuclein)	specific binding in a-synucleinopathy tissues (pathological a-synuclein; MSA, familial PD, idiopathic PD)	target engagement on Lewy bodies and Lewy neurites (silver grains) [9]	Kd [10]
[3H]c1cncc(N2Cc3nn(-c4cnc(N5CC[C@@H](F)C5)c([3H])c4)cc3C2=O)c1 [Example-1 [^3H-1]]	1104	11 nM	No accumulation of silver grains on TDP-43 aggregates; also recorded: very weak to no binding	11 to 13 nM	very weak binding	improved total and excellent specific binding	3004	13 nM	No accumulation of silver grains on Tau tangles; also recorded: did not display specific target engagement	weak	target engagement	high and improved binding site occupancy	Accumulation of silver grains on Lewy bodies and Lewy neurites; also recorded: strong target engagement	–	–	–	–	–	–
[3H]C([3H])([3H])n1cc(N2Cc3nn(-c4ccc(N5CC[C@@H](F)C5)nc4)cc3C2=O)cn1 [Example-4 [^3H-4]]	–	–	–	–	–	–	–	–	–	–	–	–	–	did not display specific target engagement	No accumulation of silver grains	very weak signal	specific binding	Accumulation of silver grains on Lewy bodies and Lewy neurites; also recorded: strong target engagement	21 nM
